Inconclusive results and toxic doses are left out. Rule as the data show it: active = T/C of 150% or more; inactive = T/C below 125%.
Tested on: L1210 leukemia ip in BDF1 mice, survival T/C
Test: NCI In Vivo Anticancer Drug Screen. Data for tumor model L1210 Leukemia (intraperitoneal) in B6D2F1 (BDF1) mice
Conditions: endpoint: mean survival time, higher = longer survival
Outline: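 Transplantable tumor model; survival measured in treated vs vehicle control mice. Value = treated/control.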

[1] = dose: 100.0 mg/kg/injection, schedule: Q01DX009 (ip), vehicle: saline with Tween-80
[2] = dose: 200.0 mg/kg/injection, schedule: Q01DX009 (ip), vehicle: saline with Tween-80
[3] = dose: 400.0 mg/kg/injection, schedule: Q01DX009 (ip), vehicle: saline with Tween-80
[4] = dose: 100.0 mg/kg/injection, schedule: Q04DX003 (ip), vehicle: saline with Tween-80
[5] = dose: 200.0 mg/kg/injection, schedule: Q04DX003 (ip), vehicle: saline with Tween-80
[6] = dose: 400.0 mg/kg/injection, schedule: Q04DX003 (ip), vehicle: saline with Tween-80
[7] = dose: 100.0 mg/kg/injection, schedule: Q01DX009 (ip), vehicle: saline
[8] = dose: 200.0 mg/kg/injection, schedule: Q01DX009 (ip), vehicle: saline
[9] = dose: 400.0 mg/kg/injection, schedule: Q01DX009 (ip), vehicle: saline
[10] = dose: 100.0 mg/kg/injection, schedule: Q01DX001 (ip), vehicle: saline with Tween-80
[11] = dose: 200.0 mg/kg/injection, schedule: Q01DX001 (ip), vehicle: saline with Tween-80
[12] = dose: 100.0 mg/kg/injection, schedule: Q01DX001 (ip), vehicle: saline
[13] = dose: 200.0 mg/kg/injection, schedule: Q01DX001 (ip), vehicle: saline
[14] = dose: 400.0 mg/kg/injection, schedule: Q01DX001 (ip), vehicle: saline
[15] = dose: 100.0 mg/kg/injection, schedule: Q04DX002 (ip), vehicle: Klucel (hydroxypropylcellulose) (HPC)
[16] = dose: 200.0 mg/kg/injection, schedule: Q04DX002 (ip), vehicle: Klucel (hydroxypropylcellulose) (HPC)
[17] = dose: 400.0 mg/kg/injection, schedule: Q04DX002 (ip), vehicle: Klucel (hydroxypropylcellulose) (HPC)

Measured: T/C

CN=C(N)C(C)Cl (centres undefined)
inactive: dose: 100.0 mg/kg/injection, schedule: Q04DX002 (ip), vehicle: saline 106 % of control | dose: 200.0 mg/kg/injection, schedule: Q04DX002 (ip), vehicle: saline 103 % of control | dose: 400.0 mg/kg/injection, schedule: Q04DX002 (ip), vehicle: saline 103 % of control

Cc1cc(N(CCCOS(C)(=O)=O)CCCOS(C)(=O)=O)ccc1C=Nc1ccc(-c2csc(COc3ccc(Cl)cc3Cl)n2)cc1
inactive: [1] 91 % of control | [2] 96 % of control | [3] 94 % of control

O=C(N/N=C/c1ccccc1Cl)c1ccccc1
inactive: [4] 96 % of control | [5] 101 % of control | [6] 88 % of control

[N-]=[N+]=CC(=O)CCC(=O)C=[N+]=[N-]
inactive: dose: 0.75 mg/kg/injection, schedule: Q01DX009 (ip), vehicle: other 98 % of control | dose: 1.5 mg/kg/injection, schedule: Q01DX009 (ip), vehicle: other 116 % of control | dose: 6.0 mg/kg/injection, schedule: Q01DX009 (ip), vehicle: other 116 % of control

C[C@]12CCC(=O)C=C1CC[C@H]1[C@@H]3CCC(=O)[C@@]3(C)CC(=O)[C@@]12S
inactive: dose: 100.0 mg/kg/injection, schedule: Q01DX001 (ip), vehicle: steriod suspending solution 87 % of control | dose: 100.0 mg/kg/injection, schedule: Q04DX003 (ip), vehicle: steriod suspending solution 93 % of control | dose: 200.0 mg/kg/injection, schedule: Q01DX001 (ip), vehicle: steriod suspending solution 93 % of control | dose: 200.0 mg/kg/injection, schedule: Q04DX003 (ip), vehicle: steriod suspending solution 108 % of control | dose: 400.0 mg/kg/injection, schedule: Q01DX001 (ip), vehicle: steriod suspending solution 97 % of control | dose: 400.0 mg/kg/injection, schedule: Q04DX003 (ip), vehicle: steriod suspending solution 95 % of control

N#CCc1ccc([N+](=O)[O-])cc1
inactive: dose: 12.5 mg/kg/injection, schedule: Q01DX009 (ip), vehicle: Klucel (hydroxypropylcellulose) (HPC) 102 % of control | dose: 12.5 mg/kg/injection, schedule: Q04DX003 (ip), vehicle: Klucel (hydroxypropylcellulose) (HPC) 98 % of control | dose: 25.0 mg/kg/injection, schedule: Q01DX009 (ip), vehicle: Klucel (hydroxypropylcellulose) (HPC) 106 % of control | dose: 25.0 mg/kg/injection, schedule: Q04DX003 (ip), vehicle: Klucel (hydroxypropylcellulose) (HPC) 106 % of control | dose: 50.0 mg/kg/injection, schedule: Q04DX003 (ip), vehicle: Klucel (hydroxypropylcellulose) (HPC) 98 % of control

CCCCCC(Oc1ccc(Cl)cc1)C(=O)OCC (centres undefined)
inactive: [7] 101 % of control | [8] 90 % of control | [9] 114 % of control

CCC(C)NCCOC(=O)C(c1ccccc1)c1ccccc1 (centres undefined)
inactive: dose: 75.0 mg/kg/injection, schedule: Q01DX001 (ip), vehicle: other 93 % of control

c1ccc(N2CCN(Cc3ccc4ccccc4c3)CC2)cc1
inactive: [10] 96 % of control | [11] 100 % of control | dose: 400.0 mg/kg/injection, schedule: Q01DX001 (ip), vehicle: saline with Tween-80 91 % of control

CCOC(=O)CN1C(=O)NC(CC)(CC)C1=O
inactive: [7] 96 % of control | dose: 100.0 mg/kg/injection, schedule: Q04DX003 (ip), vehicle: acetone 104 % of control | [8] 94 % of control | dose: 200.0 mg/kg/injection, schedule: Q04DX003 (ip), vehicle: acetone 107 % of control | [9] 105 % of control | dose: 400.0 mg/kg/injection, schedule: Q04DX003 (ip), vehicle: acetone 102 % of control

CCOC(=O)COc1ccc2c(C)c(CCN(CC)CC)c(=O)oc2c1
inactive: [12] 103 % of control | [13] 92 % of control | [14] 96 % of control

CCS(=O)(=O)N1CCCC(C)C1 (centres undefined)
inactive: dose: 100.0 mg/kg/injection, schedule: Q04DX002 (ip), vehicle: saline with Tween-80 105 % of control | dose: 200.0 mg/kg/injection, schedule: Q04DX002 (ip), vehicle: saline with Tween-80 92 % of control | dose: 400.0 mg/kg/injection, schedule: Q04DX002 (ip), vehicle: saline with Tween-80 92 % of control

CCC1C(=O)OCc2c1cc1n(c2=O)Cc2cc3ccccc3nc2-1 (centres undefined)
inactive: dose: 2.5 mg/kg/injection, schedule: Q01DX001 (ip), vehicle: saline 102 % of control | dose: 5.0 mg/kg/injection, schedule: Q01DX001 (ip), vehicle: saline 107 % of control | dose: 10.0 mg/kg/injection, schedule: Q01DX001 (ip), vehicle: saline 102 % of control | dose: 15.0 mg/kg/injection, schedule: Q01DX001 (ip), vehicle: saline 118 % of control

CCCCn1nnc2ccc([N+](=O)[O-])cc2c1=O
inactive: dose: 100.0 mg/kg/injection, schedule: Q01DX009 (ip), vehicle: Klucel (hydroxypropylcellulose) (HPC) 92 % of control | dose: 200.0 mg/kg/injection, schedule: Q01DX009 (ip), vehicle: Klucel (hydroxypropylcellulose) (HPC) 87 % of control

C/C=C(\C)c1cc(=O)c2c(C)cc3c(c2o1)C(=O)c1c(O)c(C2CC(C)(N(C)C)C(O)C(C)O2)cc(C2CC(N(C)C)C(O)C(C)O2)c1C3=O (centres undefined)
inactive: [10] 120 % of control | [11] 114 % of control

CC(C)(C)NS(=O)(=O)CCl
inactive: [15] 111 % of control | [16] 104 % of control | [17] 93 % of control

COC(=O)C1C2CC(Br)C(Br)CC21 (centres undefined)
inactive: [4] 94 % of control | [5] 94 % of control | [6] 94 % of control

CCOC(=O)Cc1ccc2[nH]c(C(=O)OCC)cc(=O)c2c1
inactive: [12] 95 % of control | [13] 90 % of control | [14] 95 % of control

O=S1(=O)CC2C3C=CC(O3)C21 (centres undefined)
inactive: dose: 75.0 mg/kg/injection, schedule: Q01DX001 (ip), vehicle: carboxymethylcellulose (CMC) 102 % of control | dose: 150.0 mg/kg/injection, schedule: Q01DX001 (ip), vehicle: carboxymethylcellulose (CMC) 98 % of control

CSC1=NCCCC1
inactive: dose: 75.0 mg/kg/injection, schedule: Q01DX001 (ip), vehicle: saline 105 % of control | dose: 150.0 mg/kg/injection, schedule: Q01DX001 (ip), vehicle: saline 104 % of control

S=P(Oc1ccccc1)(N1CC1)N1CC1
inactive: dose: 25.0 mg/kg/injection, schedule: Q01DX009 (ip), vehicle: acetone 98 % of control | dose: 50.0 mg/kg/injection, schedule: Q01DX009 (ip), vehicle: acetone 98 % of control | dose: 50.0 mg/kg/injection, schedule: Q04DX003 (ip), vehicle: saline 100 % of control | [12] 87 % of control | dose: 100.0 mg/kg/injection, schedule: Q01DX009 (ip), vehicle: acetone 93 % of control | dose: 100.0 mg/kg/injection, schedule: Q04DX003 (ip), vehicle: saline 92 % of control | dose: 150.0 mg/kg/injection, schedule: Q01DX009 (ip), vehicle: saline 87 % of control | [13] 94 % of control | dose: 225.0 mg/kg/injection, schedule: Q01DX009 (ip), vehicle: saline 87 % of control

CCOC(=O)C(O)C(Cl)(CC)c1ccccc1 (centres undefined)
inactive: [15] 95 % of control | [16] 100 % of control | [17] 122 % of control

c1ccc2c(c1)Cc1cc3ccccc3nc1-2
inactive: [4] 106 % of control | [2] 98 % of control | [5] 93 % of control | [3] 90 % of control | [6] 98 % of control

O=c1c2ccccc2c(-c2ccccc2)nn1Cc1ccccc1
inactive: [1] 93 % of control | [2] 102 % of control | [3] 104 % of control

Cc1cc(C)c(-n2c(C)cc(C(=O)O)c2C)c(C)c1C(=O)O
inactive: dose: 100.0 mg/kg/injection, schedule: Q01DX001 (ip), vehicle: alcohol 102 % of control | dose: 200.0 mg/kg/injection, schedule: Q01DX001 (ip), vehicle: alcohol 96 % of control | dose: 400.0 mg/kg/injection, schedule: Q01DX001 (ip), vehicle: alcohol 97 % of control

CCOc1ccc(N=NS(=O)(=O)O)cc1
inactive: dose: 1.25 mg/kg/injection, schedule: Q01DX009 (ip), vehicle: saline with Tween-80 94 % of control | dose: 2.5 mg/kg/injection, schedule: Q01DX009 (ip), vehicle: saline with Tween-80 91 % of control | dose: 5.0 mg/kg/injection, schedule: Q01DX009 (ip), vehicle: saline with Tween-80 94 % of control
